“And” between values parts separate entries of the source, which are not always exact repeats. Equal entries are not always repeated.
Tests used:
HEK-293 cells = assay: Safety in vitro, MTS assay in HEK-293 cells; assay type: cell-based, human; conditions: highest used concentrations (50 and 100 µM), 72 h
Description: (§1) For safety assay, cells were seeded in 96-well plates at a concentration of 1 × 10^4 cells/well and incubated for 24 h at 37 °C in 5% CO2 atmosphere to reach 50% of confluence. Compounds 11, 12, and 18 were diluted into fresh growth medium and added to the cells at the final concentrations of 0.1–100 μM. The positive control DOX (1 μM) was also added and the cells were incubated for 72 h. The MTS (3-(4,5-dimethylthiazol-2-yl)-5-(3-carboxymethoxyphenyl)-2-(4-sulfophenyl)-2H-tetrazolium) reagent (CellTiter 96® AQueous One Solution Cell Proliferation Assay, Promega, Madison, WI, USA) was added next to each well and incubated for 4 h. The absorbance was measured using a microplate reader (EnSpire, PerkinElmer, Waltham, MA USA) at 490 nm to determine the cells’ viability. The statistical significances were calculated using GraphPad Prism 8.0.1 software.

[1] = Safety in vitro, MTS assay in HEK-293 cells; assay type: cell-based, human; conditions: human, HEK-293 cells, 50 µM, read-out: HEK-293 cell viability
Description: as §1

[2] = Cytotoxicity MTT assay, 24 h, PAR cells; assay type: cell-based; conditions: mouse, parental (PAR) L5178 mouse T-cell lymphoma cells, read-out: Cytotoxic effect IC50
Description: (§2) The cytotoxicity of compounds 7–20 was examined in both aforementioned PAR and MDR mouse T-lymphoma cell lines, using the MTT assay to estimate IC50 values. The selectivity index for cytotoxic action on MDR with respect to PAR cells was calculated (SI, Table 3). […] This range of SI may indicate ABCB1-efflux pump substrate properties for the whole series (7–20), especially distinct in the case of 19 (SI ≤ 0.29), and slightly weaker for 8, 12, 16, and 18.
(§3) L5178 mouse T-cell lymphoma cells (PAR) (ECACC Cat. No. 87111908, obtained from FDA, Silver Spring, MD, USA) were transfected with pHa MDR1/A retrovirus, as previously described by Cornwell et al.. The ABCB1-expressing cell line L5178Y (MDR) was selected by culturing the infected cells with colchicine. The parental L5178 mouse T-cell lymphoma cells and the L5178Y human ABCB1-transfected subline were cultured in McCoy’s 5A medium (Sigma-Aldrich, St Louis, MO, USA) supplemented with 10% heat-inactivated horse serum (Sigma-Aldrich, St Louis, MO, USA), 200 mM L-glutamine (Sigma-Aldrich, St Louis, MO, USA), and a penicillin-streptomycin (Sigma-Aldrich, St Louis, MO, USA) mixture in concentrations of 100 U/L and 10 mg/L, respectively. The cell lines were incubated at 37 °C, in a 5% CO2, 95% air atmosphere.
(§4) Cytotoxicity and antiproliferative assays were performed following the procedure described in the literature. Parental and multidrug-resistant mouse T-lymphoma cells were used to determine the effect of the arylideneimidazolones on the growth of cells. The effects of increasing concentrations of arylideneimidazolones on cell growth were tested in 96-well flat-bottomed microtiter plates. The compounds were diluted in a volume of 100 μL of medium.
(§5) In the case of the mouse T-lymphoma cells, the two-fold serial dilutions were prepared in 100 μL of McCoy’s 5A, horizontally. The parental (PAR) and multidrug-resistant (MDR) mouse T-lymphoma cells were adjusted to a density of 1 × 10^4 cells (for cytotoxic assay) and 6 × 10^3 (for antiproliferative assay) in 100 μL of McCoy’s 5A medium and were added to each well, with the exception of the medium control wells.
(§6) The culture plates were incubated at 37 °C for 24 h (for cytotoxicity assay) and 72 h (for antiproliferative assay); at the end of the incubation period, 20 μL of MTT (thiazolyl blue tetrazolium bromide, Sigma) solution (from a stock solution of 5 mg/mL) were added to each well. After incubation at 37 °C for 4 h, 100 μL of sodium dodecyl sulfate (SDS) (Sigma) solution (10% in 0.01 M HCI) were added to each well and the plates were further incubated at 37 °C overnight. Cell growth was determined by measuring the optical density (OD) at 540/630 nm with a Multiscan EX ELISA reader (Thermo Labsystems, Cheshire, WA, USA).
(§7) Results have been expressed in terms of IC50, defined as the inhibitory dose that reduces the growth of the cells exposed to the tested compounds by 50%, each representing the mean of a minimum of three independent experiments.

ABCB1 efflux pump = ABCB1 efflux pump (Homo sapiens, UniProt P08183); assay: Rhodamine 123 accumulation assay (flow cytometry); conditions: for FAR Quotient (%): FAR of compound related to FAR of VER tested at 20 µM; for FAR (fluorescence activity ratio): rhodamine 123 accumulation, MDR vs PAR mouse T-lymphoma cells
ABCB1 efflux pump, sequence (P08183 whole entry): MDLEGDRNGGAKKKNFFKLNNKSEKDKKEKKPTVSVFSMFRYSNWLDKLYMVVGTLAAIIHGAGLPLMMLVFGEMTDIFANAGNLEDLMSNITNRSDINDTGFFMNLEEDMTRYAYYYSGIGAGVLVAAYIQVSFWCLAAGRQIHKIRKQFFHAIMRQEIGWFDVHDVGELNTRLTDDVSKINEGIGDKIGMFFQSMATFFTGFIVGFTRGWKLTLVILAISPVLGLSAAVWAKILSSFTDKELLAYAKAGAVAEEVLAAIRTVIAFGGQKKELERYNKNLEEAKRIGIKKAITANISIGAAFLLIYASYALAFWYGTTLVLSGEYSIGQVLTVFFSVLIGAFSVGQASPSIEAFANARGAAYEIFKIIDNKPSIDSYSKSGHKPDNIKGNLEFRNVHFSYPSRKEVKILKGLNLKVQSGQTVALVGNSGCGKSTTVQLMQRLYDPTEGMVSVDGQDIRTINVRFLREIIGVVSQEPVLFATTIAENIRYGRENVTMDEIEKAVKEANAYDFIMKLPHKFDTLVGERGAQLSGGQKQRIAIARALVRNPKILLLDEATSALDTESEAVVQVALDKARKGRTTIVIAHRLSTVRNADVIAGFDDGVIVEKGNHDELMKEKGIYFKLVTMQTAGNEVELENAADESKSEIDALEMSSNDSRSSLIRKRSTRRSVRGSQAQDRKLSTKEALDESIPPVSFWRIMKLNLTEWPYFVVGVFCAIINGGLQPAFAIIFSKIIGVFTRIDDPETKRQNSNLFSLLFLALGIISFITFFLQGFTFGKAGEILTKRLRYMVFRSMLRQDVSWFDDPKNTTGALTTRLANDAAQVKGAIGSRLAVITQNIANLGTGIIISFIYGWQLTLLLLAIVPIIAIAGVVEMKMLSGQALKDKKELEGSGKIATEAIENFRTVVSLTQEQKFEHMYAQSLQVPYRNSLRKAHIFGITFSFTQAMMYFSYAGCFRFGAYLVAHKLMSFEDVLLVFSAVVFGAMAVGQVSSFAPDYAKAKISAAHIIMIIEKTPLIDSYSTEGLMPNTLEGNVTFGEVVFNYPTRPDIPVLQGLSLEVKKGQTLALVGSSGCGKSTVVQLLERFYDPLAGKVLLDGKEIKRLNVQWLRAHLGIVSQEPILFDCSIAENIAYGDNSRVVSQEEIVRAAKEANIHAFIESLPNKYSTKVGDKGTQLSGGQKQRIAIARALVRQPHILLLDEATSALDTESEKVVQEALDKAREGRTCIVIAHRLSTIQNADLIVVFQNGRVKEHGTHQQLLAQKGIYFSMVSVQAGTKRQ
Description: The study was carried out on mouse T-lymphoma cell lines, including the parental sensitive line (PAR) and its multidrug-resistant subline (MDR) transfected with the human MDR1 (ABCB1) gene. […] The fluorescence activity ratio (FAR), as a measure of the efflux pump modulating properties, was calculated based on the fluorescence data obtained [23, 24, 25]. […] The parental L5178 mouse T-cell lymphoma cells and the L5178Y human ABCB1-transfected subline were cultured in McCoy’s 5A medium (Sigma-Aldrich, St Louis, MO, USA) supplemented with 10% heat-inactivated horse serum (Sigma-Aldrich, St Louis, MO, USA), 200 mM L-glutamine (Sigma-Aldrich, St Louis, MO, USA), and a penicillin-streptomycin (Sigma-Aldrich, St Louis, MO, USA) mixture in concentrations of 100 U/L and 10 mg/L, respectively.
The potency of the tested compounds as inhibitors of the ABCB1 efflux pump was determined using a fluorescence-based detection system, described previously in the literature [23, 26]. […] The parental (PAR) and multidrug-resistant (MDR) mouse T-lymphoma cells were adjusted to a density of 2 × 10^6/mL, re-suspended in serum-free McCoy’s 5A medium, and distributed in 0.5 mL aliquots into Eppendorf centrifuge tubes. […] The fluorescence intensity of the cell population was measured with a Partec CyFlow flow cytometer (Partec, Munster, Germany). […] The mean fluorescence intensity (%) was calculated for the treated MDR and PAR mouse T-lymphoma cells as compared to the untreated cells.

Pgp (ABCB1) ATPase = target: T1, Pgp (ABCB1) ATPase (Homo sapiens, UniProt P08183); assay: Luminescent Pgp-Glo Assay (Pgp ATPase intrinsic activity); assay type: biochemical; conditions: 100 µM, 40 min, 37 °C; substrates stimulate basal activity (>100%)
T1 construct: purchased Promega (Madison, WI, USA)
T1 sequence (P08183 whole entry): as above
Description: Compounds 11, 12, and 18 were tested at 100 µM on their influence on the ATPase activity of the Pgp pump in the luminescence Pgp-Glo™ Assay, according to previously described methods and protocols. In this assay, luminescence was measured. The Pgp-dependent decreases in luminescence reflect the ATP consumption by Pgp. […] Thus, inhibitors give results <100% of the basal activity, while stimulators/substrates cause a statistically significant increase in the basal activity. […].
The luminescent Pgp-Glo™ Assay System used for determination of the arylideneimidazolone influence on P-glycoprotein activity was purchased from Promega (Madison, WI, USA). The assay was performed in triplicate as described previously. […]. For basal P-gp activity calculation, the membranes were incubated with 100 µM of Na3VO4. The luminescence signal was measured by a microplate reader EnSpire PerkinElmer (Waltham, MA, USA). The statistical significances were calculated using GraphPad Prism 8.0.1 software.

[3] = Cytotoxicity MTT assay, 24 h, MDR cells; assay type: cell-based; conditions: mouse
Description: as §2, §3, §4, §5, §6, §7

[4] = test system: parental (PAR) mouse T-lymphoma cells; assay: Antiproliferative MTT assay, 72 h, PAR cells; assay type: cell-based; conditions: read-out: Antiproliferative effect IC50
Description: (§8) The ABCB1-expressing cell line L5178Y (MDR) was selected by culturing the infected cells with colchicine. The parental L5178 mouse T-cell lymphoma cells and the L5178Y human ABCB1-transfected subline were cultured in McCoy’s 5A medium (Sigma-Aldrich, St Louis, MO, USA) supplemented with 10% heat-inactivated horse serum (Sigma-Aldrich, St Louis, MO, USA), 200 mM L-glutamine (Sigma-Aldrich, St Louis, MO, USA), and a penicillin-streptomycin (Sigma-Aldrich, St Louis, MO, USA) mixture in concentrations of 100 U/L and 10 mg/L, respectively.
as §4, §5
(§9) Cell growth was determined by measuring the optical density (OD) at 540/630 nm with a Multiscan EX ELISA reader (Thermo Labsystems, Cheshire, WA, USA).

[5] = test system: multidrug-resistant (MDR) mouse T-lymphoma cells; assay: Antiproliferative MTT assay, 72 h, MDR cells; assay type: cell-based
Description: as §8, §4, §5, §9

SMILES: Cl.NC1=N/C(=C\c2ccc3c(c2)Cc2ccccc2-3)C(=O)N1CCCN1CCOCC1 [Compound 18, (Z)-5-((9H-Fluoren-2-yl)methylene)-2-amino-3-(3-morpholinopropyl)-imidazol-4(5H)-one hydrochloride]
- melting point: 261 to 263 °C
- effect on HEK-293 cell viability (HEK-293 cells): significantly decreased HEK-293 cell viability
- viability at 72 h, 50 µM [1]: 10.3%
- IC50 at 24 h [2]: 16 µM
- efflux pump inhibiting effect relative to verapamil (ABCB1 efflux pump; 20 µM, same concentration as verapamil): ~1.5 fold and 1.38–1.46 fold
- FAR Quotient (%) (ABCB1 efflux pump; concentration 2 µM): 7.94%
- FAR (fluorescence activity ratio) (ABCB1 efflux pump; concentration 2 µM): 1.038
- FAR Quotient (%) (ABCB1 efflux pump; concentration 20 µM): 138.37%
- FAR (fluorescence activity ratio) (ABCB1 efflux pump; concentration 20 µM, VER values for assay group 1 / 2): 18.095
- effect on ABCB1 basal activity (Pgp ATPase) (Pgp (ABCB1) ATPase): increase in basal activity
- IC50 at 24 h ([3]; MDR cells, 24 h, MTT, read-out: Cytotoxic effect IC50): 27.8 µM
- selectivity ratio at 24 h ([3]; cytotoxic action on MDR with respect to PAR cells, read-out: SI (selectivity index), cytotoxicity): 0.58
- IC50 [4]: 13.4 µM
- SI (selectivity index), antiproliferative ([5]; MDR with respect to PAR cells): 1.24
- IC50 ([5]; Mus musculus, MDR cells, 72 h, MTT, read-out: Antiproliferative effect IC50): 10.8 µM

— publication PMC7249047, “Search for ABCB1 Modulators Among 2-Amine-5-Arylideneimidazolones as a New Perspective to Overcome Cancer Multidrug Resistance” (Molecules, 2020)
